From patent US12528767B2, “HDAC6 inhibitors and uses thereof” (Eikonizo Therapeutics, Inc., priority 2019, dated 2026)
Where two headings read alike, the source gives them in different places.

Key:
Full length Human HDAC6 = molecular target: T1, Full length Human HDAC6 (Homo sapiens, UniProt Q9UBN7); details: for Selectivity (6 v 8) (fold): ratio of HDAC8 IC50/HDAC6 IC50
T1 sequence (Q9UBN7 1-1215): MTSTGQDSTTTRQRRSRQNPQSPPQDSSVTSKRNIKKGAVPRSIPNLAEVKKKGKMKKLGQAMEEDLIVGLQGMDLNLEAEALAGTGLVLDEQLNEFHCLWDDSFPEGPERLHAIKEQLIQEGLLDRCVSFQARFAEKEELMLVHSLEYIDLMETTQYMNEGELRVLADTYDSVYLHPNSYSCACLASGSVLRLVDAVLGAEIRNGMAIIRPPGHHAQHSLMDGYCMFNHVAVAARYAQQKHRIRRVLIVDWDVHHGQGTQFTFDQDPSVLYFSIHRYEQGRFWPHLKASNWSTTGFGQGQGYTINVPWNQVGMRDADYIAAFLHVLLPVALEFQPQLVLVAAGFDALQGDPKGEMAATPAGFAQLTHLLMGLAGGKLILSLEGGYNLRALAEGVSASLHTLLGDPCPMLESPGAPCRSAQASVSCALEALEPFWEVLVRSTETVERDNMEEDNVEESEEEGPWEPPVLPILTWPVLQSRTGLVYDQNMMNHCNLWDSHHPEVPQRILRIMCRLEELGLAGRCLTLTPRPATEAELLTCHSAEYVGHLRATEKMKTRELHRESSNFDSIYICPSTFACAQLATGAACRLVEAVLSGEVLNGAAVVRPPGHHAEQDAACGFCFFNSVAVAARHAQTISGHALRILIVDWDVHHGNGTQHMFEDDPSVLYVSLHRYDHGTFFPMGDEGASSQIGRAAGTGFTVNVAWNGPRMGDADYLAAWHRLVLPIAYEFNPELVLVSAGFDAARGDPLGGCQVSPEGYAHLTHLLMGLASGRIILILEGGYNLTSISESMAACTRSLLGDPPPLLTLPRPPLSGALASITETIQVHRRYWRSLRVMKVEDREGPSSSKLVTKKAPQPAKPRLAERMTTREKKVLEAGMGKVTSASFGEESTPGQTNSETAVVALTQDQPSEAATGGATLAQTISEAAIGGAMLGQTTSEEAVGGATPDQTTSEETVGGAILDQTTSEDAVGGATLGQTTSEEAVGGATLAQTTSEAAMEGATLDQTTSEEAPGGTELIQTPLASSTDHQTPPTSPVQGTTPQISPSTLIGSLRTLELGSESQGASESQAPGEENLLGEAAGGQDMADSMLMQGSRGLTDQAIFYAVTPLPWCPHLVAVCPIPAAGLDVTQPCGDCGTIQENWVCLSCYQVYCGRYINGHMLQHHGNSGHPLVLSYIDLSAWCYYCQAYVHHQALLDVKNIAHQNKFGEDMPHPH

Human HDAC7 aa 518-end = molecular target: T2, Human HDAC7 aa 518-end (Homo sapiens, UniProt Q8WUI4)
T2 sequence (Q8WUI4 518-952 limits assumed): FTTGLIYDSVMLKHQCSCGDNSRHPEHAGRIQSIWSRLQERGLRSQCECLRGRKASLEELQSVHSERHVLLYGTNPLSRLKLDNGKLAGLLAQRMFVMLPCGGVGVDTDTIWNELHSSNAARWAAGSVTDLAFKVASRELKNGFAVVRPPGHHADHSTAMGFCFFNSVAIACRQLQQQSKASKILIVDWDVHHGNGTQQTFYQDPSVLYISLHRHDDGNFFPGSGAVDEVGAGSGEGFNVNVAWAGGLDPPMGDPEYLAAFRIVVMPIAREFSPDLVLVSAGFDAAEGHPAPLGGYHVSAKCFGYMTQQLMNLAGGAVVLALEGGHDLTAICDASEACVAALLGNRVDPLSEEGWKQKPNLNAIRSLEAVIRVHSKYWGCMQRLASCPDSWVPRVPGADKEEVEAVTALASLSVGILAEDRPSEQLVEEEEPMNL

Full length Human HDAC8 = molecular target: T3, Full length Human HDAC8 (Homo sapiens, UniProt Q9BY41)
T3 sequence (Q9BY41 1-377): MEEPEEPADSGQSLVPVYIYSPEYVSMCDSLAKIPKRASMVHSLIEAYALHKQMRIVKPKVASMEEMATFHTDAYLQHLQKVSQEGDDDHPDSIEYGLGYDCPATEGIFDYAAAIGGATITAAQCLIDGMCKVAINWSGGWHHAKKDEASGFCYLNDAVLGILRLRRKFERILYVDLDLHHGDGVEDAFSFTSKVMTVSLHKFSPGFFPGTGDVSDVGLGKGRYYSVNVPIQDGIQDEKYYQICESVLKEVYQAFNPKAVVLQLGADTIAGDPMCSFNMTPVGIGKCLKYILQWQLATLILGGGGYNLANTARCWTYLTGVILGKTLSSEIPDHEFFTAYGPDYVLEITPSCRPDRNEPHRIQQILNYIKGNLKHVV

Full length Human HDAC10 = molecular target: T4, Full length Human HDAC10 (Homo sapiens, UniProt Q969S8)
T4 sequence (Q969S8 1-669): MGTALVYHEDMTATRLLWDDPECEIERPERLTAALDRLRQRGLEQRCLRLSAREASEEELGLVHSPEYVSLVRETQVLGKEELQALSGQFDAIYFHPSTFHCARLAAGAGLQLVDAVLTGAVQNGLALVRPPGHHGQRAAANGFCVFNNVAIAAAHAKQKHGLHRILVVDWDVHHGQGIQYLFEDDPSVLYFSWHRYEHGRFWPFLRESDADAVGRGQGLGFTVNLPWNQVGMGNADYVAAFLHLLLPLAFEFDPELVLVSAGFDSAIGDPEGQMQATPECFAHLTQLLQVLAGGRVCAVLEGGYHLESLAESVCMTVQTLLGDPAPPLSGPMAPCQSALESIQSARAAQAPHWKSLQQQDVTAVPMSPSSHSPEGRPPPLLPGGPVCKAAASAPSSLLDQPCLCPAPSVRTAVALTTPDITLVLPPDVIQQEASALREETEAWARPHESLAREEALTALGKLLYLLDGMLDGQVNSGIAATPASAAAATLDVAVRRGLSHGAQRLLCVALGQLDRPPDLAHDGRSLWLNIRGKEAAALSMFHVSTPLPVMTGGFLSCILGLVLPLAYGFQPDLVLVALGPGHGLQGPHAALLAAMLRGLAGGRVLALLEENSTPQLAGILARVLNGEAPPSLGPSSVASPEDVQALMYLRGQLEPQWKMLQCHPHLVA

[1] = read-out: In vitro enzymatic IC50, HDAC Paralog 6, Table 2
[2] = read-out: In vitro enzymatic IC50, HDAC Paralog 8, Table 2

Row | IC50 (Full length Human HDAC6) [µM] | Selectivity (6 v 8) (fold) (Full length Human HDAC6; Table 1, number) | Selectivity (6 v 8) (fold) (Full length Human HDAC6; Table 1, range class) | IC50 (Full length Human HDAC6; [1]) [µM] | IC50 (Human HDAC7 aa 518-end) [µM] | IC50 (Full length Human HDAC8) [µM] | IC50 (Full length Human HDAC8; [2]) [µM] | IC50 (Full length Human HDAC10) [µM] | Structure (SMILES)
1 | 0.001 to 0.1 | 461.1 | IV (IV: >100-1000) | 0.001 to 0.1 | 10 to 100 | 10 to 100 | 10 to 100 | 10 to 100 | O=C(NO)c1cc(F)c2c(c1)CCN(C1CC3(COC3)C1)C2 [compound 111]
2 | 0.001 to 0.1 |  |  |  | 10 to 100 | 1 to 10 | 1 to 10 | 10 to 100 | O=C(NO)c1cc(F)c2c(c1)CCN([C@@H]1CCC3(CCCCC3)C1)C2 (single isomer, unassigned) [compound 110]
3 | 0.001 to 0.1 |  |  | 0.001 to 0.1 | 1 to 10 | 0.1 to 1 | 0.1 to 1 | 10 to 100 | O=C(NO)c1ccc(CN2C3CCC2COC3)c(F)c1 [compound 59]
4 | 0.1 to 1 | 24.9 | III (III: >10-100) | 0.1 to 1 | 1 to 10 | 1 to 10 | 1 to 10 | 10 to 100 | O=C(NO)c1ccc(CN2CCC3(CCCCC3)CC2)c(F)c1 [compound 74]
5 | 0.001 to 0.1 | 41.9 | III (III: >10-100) |  |  | 1 to 10 |  |  | O=C(NO)c1ccc(CN2CCC3(CC2)C2CC4CC(C2)CC3C4)c(F)c1 [compound 167, 3-fluoro-N-hydroxy-4-(((1r,3r,5r,7r)-spiro[adamantane-2,4′-piperidin]-1′-yl)methyl)benzamide]
6 | 0.001 to 0.1 | 69.7 | III (III: >10-100) |  |  | 1 to 10 |  |  | O=C(NO)c1ccc2c(c1)CCN(CC13CC4CC(CC(C4)C1)C3)C2 [compound 26]
7 | 0.001 to 0.1 |  |  |  |  | 1 to 10 |  |  | O=C(NO)c1ccc(CN2CCCC3(C2)C2CC4CC(C2)CC3C4)c(F)c1 (centres unmarked) [compound 77]
8 | 0.001 to 0.1 |  |  |  |  | 1 to 10 |  |  | O=C(NO)c1ccc(CN2CCCC3(CCCCC3)C2)c(F)c1 [compound 64]
9 | 0.001 to 0.1 | 207.1 | IV (IV: >100-1000) |  |  | 10 to 100 |  |  | O=C(NO)c1cc(F)c2c(c1)CCN([C@H]1CCC13CCCCC3)C2 (single isomer, unassigned) [compound 9]

The next lines start with the molecule.

Row | Structure (SMILES) | IC50 (Full length Human HDAC6) [µM] | Selectivity (6 v 8) (fold) (Full length Human HDAC6; Table 1, number) | Selectivity (6 v 8) (fold) (Full length Human HDAC6; Table 1, range class) | IC50 (Full length Human HDAC6; [1]) [µM] | IC50 (Human HDAC7 aa 518-end) [µM] | IC50 (Full length Human HDAC8) [µM] | IC50 (Full length Human HDAC8; [2]) [µM] | IC50 (Full length Human HDAC10) [µM]
10 | O=C(NO)c1cc(F)c2c(c1)CCN(C1COC1)C2 [compound 24] | 0.001 to 0.1 |  |  | 0.001 to 0.1 | 1 to 10 | 1 to 10 | 1 to 10 | > 100
11 | O=C(NO)c1ccc(CN2C3CCCC2CC3)c(F)c1 [compound 61] | 0.1 to 1 | 9.6 | II (II: >1-10) | 0.1 to 1 | 1 to 10 | 1 to 10 | 1 to 10 | > 100
12 | CC1(C)C[C@H]2Cc3c(F)cc(C(=O)NO)cc3CN2C1 (single isomer, unassigned) [compound 128] | 0.1 to 1 |  |  |  | 1 to 10 | 1 to 10 |  | > 100
13 | CC(C)(C)CN1CCc2cc(C(=O)NO)cc(F)c2C1 [compound 20] | 0.001 to 0.1 |  |  | 0.001 to 0.1 | > 100 | 10 to 100 | 10 to 100 | 10 to 100
14 | O=C(NO)c1cc(F)c2c(c1)CC1CCCN1C2 (single isomer, unassigned) [compound 120] | 0.001 to 0.1 |  |  | 0.001 to 0.1 | 1 to 10 | 1 to 10 | 1 to 10 | > 100
15 | C[C@H]1CC[C@H]2c3c(F)cc(C(=O)NO)cc3CCN12 (single isomer, unassigned) [compound 157] | 0.001 to 0.1 |  |  |  | 0.1 to 1 | 1 to 10 |  | 10 to 100
16 | O=C(NO)c1ccc(CN2C3CCC2CC(=NO)C3)c(F)c1 [compound 54] | 0.001 to 0.1 | 38.9 | III (III: >10-100) | 0.001 to 0.1 | 1 to 10 | 0.1 to 1 | 0.1 to 1 | > 100
17 | O=C(NO)c1cc(F)c2c(c1)CCn1cccc1-2 [compound 147, 10-fluoro-N-hydroxy-5,6-dihydropyrrolo[2,1-a] isoquinoline-8-carboxamide] | 0.001 to 0.1 |  |  |  |  | 1 to 10 |  | 
18 | O=C1CC2CCC(C1)N2Cc1ccc(C(=O)NO)cc1F [compound 63] | 0.001 to 0.1 | 42.1 | III (III: >10-100) |  |  | 0.1 to 1 |  | 
19 | O=C(NO)c1cc(F)c2c(c1)CN(CC1COC1)CC2 [compound 115, 5-fluoro-N-hydroxy-2-(oxetan-3-ylmethyl)-1,2,3,4-tetrahydroisoquinoline-7-carboxamide] | 0.1 to 1 |  |  |  |  | 1 to 10 |  | 
20 | O=C(NO)c1ccc2c(c1)C[C@@H]1COCC(=O)N1C2 (single isomer, unassigned) [compound 133] | 0.1 to 1 |  |  |  |  | 1 to 10 |  | 
21 | O=C(NO)c1cc(F)c2c(c1)CN(CC13CC4CC(CC(C4)C1)C3)CC2 [compound 113, 2-(((3r,5r,7r)-adamantan-1-yl)methyl)-5-fluoro-N-hydroxy-1,2,3,4-tetrahydroisoquinoline-7-carboxamide] | 0.001 to 0.1 |  |  |  |  | 1 to 10 |  | 
22 | CN1Cc2ccc(C(=O)NO)cc2CN1Cc1ccccc1 [compound 117, 3-benzyl-N-hydroxy-2-methyl-1,2,3,4-tetrahydrophthalazine-6-carboxamide] | 0.001 to 0.1 | 7.9 | II (II: >1-10) |  |  | 0.1 to 1 |  | 
